Data published in paper PMC3057712 (Molecular Biology of the Cell, 2011).

Biological target: T1, Sfh1 (Saccharomyces cerevisiae, UniProt P33324)
T1 sequence (P33324 1-310): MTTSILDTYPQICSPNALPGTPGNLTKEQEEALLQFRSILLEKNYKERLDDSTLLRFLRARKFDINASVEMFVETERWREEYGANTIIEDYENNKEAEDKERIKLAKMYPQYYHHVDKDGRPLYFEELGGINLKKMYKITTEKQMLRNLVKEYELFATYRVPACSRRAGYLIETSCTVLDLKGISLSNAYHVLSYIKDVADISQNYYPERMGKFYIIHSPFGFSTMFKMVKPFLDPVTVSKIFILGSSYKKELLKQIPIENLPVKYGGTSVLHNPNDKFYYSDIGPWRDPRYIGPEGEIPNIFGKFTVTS
Test: CW X-band EPR, loading from multilamellar liposomes
Type: binding
Conditions: 130 μM protein, twofold molar excess of lipid, pH 6.8, 23°C; labelled compound

% of total protein loaded: ~ 20%
Substance: 1-acyl-2-(n-(4,4-dimethyloxazolidine-N-oxyl)stearoyl)-sn-glycero-3-phosphocholines [16-doxyl-PtdCho]
